Measurements from ChEMBL document CHEMBL2062430, “Set-up of a new series of HDAC inhibitors: the 5,11-dihydrodibenzo[b,e]azepin-6-ones as privileged structures” (Bioorg Med Chem Lett, 2012).

Legend:
Histone deacetylase = test: Inhibition of HDAC in human HeLa cell extracts using Fluor de Lys as substrate by fluorescence assay; type: protein assay
[1] = molecular target: T1, Histone deacetylase (Homo sapiens) (UniProt Q13547+O15379+Q9UBN7+Q92769+Q9UQL6+Q8WUI4+Q9BY41+Q96DB2+P56524+Q9UKV0+Q969S8); conditions: HeLa, at 0.01 µM
Description: Inhibition of HDAC in human HeLa cell extracts using Fluor de Lys as substrate at 0.01 uM by fluorescence assay

[2] = molecular target: T1, Histone deacetylase (Homo sapiens); conditions: HeLa, at 0.1 µM
Description: Inhibition of HDAC in human HeLa cell extracts using Fluor de Lys as substrate at 0.1 uM by fluorescence assay

[3] = molecular target: T1, Histone deacetylase (Homo sapiens); conditions: HeLa, at 1 µM
Description: Inhibition of HDAC in human HeLa cell extracts using Fluor de Lys as substrate at 1 uM by fluorescence assay

HCT-116 = test: Antiproliferative activity against human HCT116 cells after 5 days by Alamar Blue assay; type: functional, cell-based; conditions: HCT-116, 120 h

Row | Compound | IC50 (Histone deacetylase) [nM] | inhibition [1] [%] | inhibition [2] [%] | inhibition [3] [%] | IC50 (HCT-116) [nM]
1 | O=C(CCCCCn1c(=O)c2ccccc2c(=O)c2ccccc21)NO | 153 | 11 | 47 | 77 | > 1000
2 | COC1(OC)c2ccccc2C(=O)N(CCCCCC(=O)NO)c2ccccc21 | – | < 20 | < 20 | 42 | –
3 | O=C(CCCCCN1C(=O)c2ccccc2C(F)(F)c2ccccc21)NO | 111 | < 20 | 50 | 78 | 600

Now from value to compound:

Row | IC50 (Histone deacetylase) [nM] | inhibition [1] [%] | inhibition [2] [%] | inhibition [3] [%] | IC50 (HCT-116) [nM] | Compound
4 | 53 | < 20 | 62 | 84 | 1600 | O=C(CCCCCN1C(=O)c2ccccc2C(F)c2ccccc21)NO (centres undefined)
5 | – | < 20 | < 20 | < 20 | – | O=C(CCCN1C(=O)c2ccccc2Cc2ccccc21)NO
6 | 60 | 21 | 58 | 81 | 2000 | O=C(CCCCCN1C(=O)c2ccccc2C(O)c2ccccc21)NO (centres undefined)
7 | 42 | 21 | 67 | 84 | 710 | O=C(CCCCCN1C(=O)c2ccccc2Cc2ccccc21)NO
8 | – | < 20 | < 20 | 29 | – | O=C(CCCCN1C(=O)c2ccccc2Cc2ccccc21)NO
